Data as given in patent publication US10398751B2, “Pharmaceutical compositions of water soluble peptides with poor solubility in isotonic conditions and methods for their use” (STRONGBRIDGE IRELAND LIMITED, priority 2016, dated 2019).
Structures can show the parent of a compound that is named as a salt. Where two headings read alike, the source gives them in different places.

What was measured:
[1] = system: CHO-cells expression cloned human SST-R5; test: Growth inhibition of CHO cells; assay type: cell-based
[2] = Solubility screening of veldoreotide acetate (10 mg, incremental volumes of medium, USP definition); assay type: physicochemical
Excerpt: The solubility of veldoreotide acetate in aqueous media was screened by the following method. A fixed amount of 10 milligrams of the peptide was weighed and dissolved at ambient temperature by increased (incremental) volumes of the tested medium until a complete solubility was observed, i.e, clear/transparent solution and absence of any precipitates (the solubility endpoint values were defined according to USP guidance). Following the results of the screening studies, several media were selected for verification studies based on quantitative assessment of the peptide concentration by HPLC (maximal solubility). The results of the screening study are depicted in Table 1 while the results of the verification studies are included in Table 2.

- Results USP Definition ([2]; 10 mg in 0.1% TFA): Freely soluble
- Results USP Definition ([2]; 10 mg in 0.1N HCL, acetate salt): Soluble
- Results USP Definition ([2]; 10 mg in 0.1N HCL, listed as veldoreotide acetate, acetate salt): soluble
- Results USP Definition ([2]; 10 mg in 0.9N HCL, acetate salt): Insoluble
- Results USP Definition ([2]; 10 mg in 0.9N HCL, listed as veldoreotide acetate, acetate salt): insoluble
- Results USP Definition ([2]; 10 mg in 2% Propylene glycol in olive oil (or cottonseed oil)): Sparingly
- Results USP Definition ([2]; 10 mg in 10% EtOH (95%) in olive oil (or cottonseed oil)): Sparingly
- Results USP Definition ([2]; 10 mg in Acetate saline 100 mM, Mannitol 250 mM (pH 4.3)): Slightly soluble
- Results USP Definition ([2]; 10 mg in Acetic acid 1% (glacial)): Freely soluble
- Results USP Definition ([2]; 10 mg in Acetone (USP)): Freely soluble
- Results USP Definition ([2]; 10 mg in Caprylic acid): Soluble
- Results USP Definition ([2]; 10 mg in DDW (Double distilled water)): Freely soluble
- Results USP Definition ([2]; 10 mg in Dextrose 5% (USP)): Freely soluble
- Results USP Definition ([2]; 10 mg in Ethanol (USP)): Freely soluble
- Results USP Definition ([2]; 10 mg in Glycerol): Soluble
- Results USP Definition ([2]; 10 mg in Lactic acid 37 mM, Mannitol 250 mM (pH 4.3)): Freely soluble
- Results USP Definition ([2]; 10 mg in Oleic acid): Very slightly
- Results USP Definition ([2]; 10 mg in PBS pH 7.2): Very slightly
- Results USP Definition ([2]; 10 mg in Propylene glycol): Freely soluble
- Results USP Definition ([2]; 10 mg in Refined vegetable oils, Olive, Cotton, Coconut, Canola): Insoluble
- Results USP Definition ([2]; 10 mg in Saline (USP) (0.9% NaCl) pH 4.5): Very slightly
- Results USP Definition ([2]; 10 mg in WFI-USP (water for injection)): Soluble
- solubility ([2]; 0.1% TFA, 10 mg in 0.1% TFA, read-out: 0.01 ml Very soluble (1 g/ml)): < 1000 mg/mL
- solubility ([2]; 0.1% TFA, 10 mg in 0.1% TFA, read-out: 0.5 ml Soluble (0.02 g/ml; 20 mg/ml)): > 20 mg/mL
- solubility ([2]; 0.1% TFA, 10 mg in 0.1% TFA, read-out: 1 ml Sparingly soluble (0.01 g/ml; 10 mg/ml)): > 10 mg/mL
- solubility ([2]; 0.1% TFA, 0.1 ml Freely soluble (0.1 g/ml), 10 mg in 0.1% TFA): > 100 mg/mL
- solubility ([2]; 0.1% TFA, 10 ml Slightly soluble (0.001 g/ml; 1 mg/ml), 10 mg in 0.1% TFA): > 1 mg/mL
- solubility ([2]; 0.1N HCl, 10 mg in 0.1N HCL, read-out: 0.01 ml Very soluble (1 g/ml)): < 1000 mg/mL
- solubility ([2]; 0.1N HCl, 10 mg in 0.1N HCL, read-out: 0.5 ml Soluble (0.02 g/ml; 20 mg/ml)): > 20 mg/mL
- solubility ([2]; 0.1N HCl, 10 mg in 0.1N HCL, read-out: 1 ml Sparingly soluble (0.01 g/ml; 10 mg/ml)): > 10 mg/mL
- solubility ([2]; 0.1N HCl, 0.1 ml Freely soluble (0.1 g/ml), 10 mg in 0.1N HCL): > 100 mg/mL
- solubility ([2]; 0.1N HCl, 10 ml Slightly soluble (0.001 g/ml; 1 mg/ml), 10 mg in 0.1N HCL): > 1 mg/mL
- solubility ([2]; 0.9N HCl, 10 mg in 0.9N HCL, read-out: 0.01 ml Very soluble (1 g/ml)): < 1000 mg/mL
- solubility ([2]; 0.9N HCl, 10 mg in 0.9N HCL, read-out: 0.5 ml Soluble (0.02 g/ml; 20 mg/ml)): < 20 mg/mL
- solubility ([2]; 0.9N HCl, 10 mg in 0.9N HCL, read-out: 1 ml Sparingly soluble (0.01 g/ml; 10 mg/ml)): < 10 mg/mL
- solubility ([2]; 0.9N HCl, 0.1 ml Freely soluble (0.1 g/ml), 10 mg in 0.9N HCL): < 100 mg/mL
- solubility ([2]; 0.9N HCl, 10 ml Slightly soluble (0.001 g/ml; 1 mg/ml), 10 mg in 0.9N HCL): < 1 mg/mL
- solubility ([2]; 2% propylene glycol in olive oil (or cottonseed oil), 10 mg in 2% Propylene glycol in olive oil (or cottonseed oil), read-out: 0.01 ml Very soluble (1 g/ml)): < 1000 mg/mL
- solubility ([2]; 2% propylene glycol in olive oil (or cottonseed oil), 10 mg in 2% Propylene glycol in olive oil (or cottonseed oil), read-out: 0.5 ml Soluble (0.02 g/ml; 20 mg/ml)): < 20 mg/mL
- solubility ([2]; 2% propylene glycol in olive oil (or cottonseed oil), 10 mg in 2% Propylene glycol in olive oil (or cottonseed oil), read-out: 1 ml Sparingly soluble (0.01 g/ml; 10 mg/ml)): > 10 mg/mL
- solubility ([2]; 2% propylene glycol in olive oil (or cottonseed oil), 0.1 ml Freely soluble (0.1 g/ml), 10 mg in 2% Propylene glycol in olive oil (or cottonseed oil)): < 100 mg/mL
- solubility ([2]; 2% propylene glycol in olive oil (or cottonseed oil), 10 ml Slightly soluble (0.001 g/ml; 1 mg/ml), 10 mg in 2% Propylene glycol in olive oil (or cottonseed oil)): > 1 mg/mL
- solubility ([2]; 10% EtOH (95%) in olive oil (or cottonseed oil), 10 mg in 10% EtOH (95%) in olive oil (or cottonseed oil), read-out: 0.01 ml Very soluble (1 g/ml)): < 1000 mg/mL
- solubility ([2]; 10% EtOH (95%) in olive oil (or cottonseed oil), 10 mg in 10% EtOH (95%) in olive oil (or cottonseed oil), read-out: 0.5 ml Soluble (0.02 g/ml; 20 mg/ml)): < 20 mg/mL
- solubility ([2]; 10% EtOH (95%) in olive oil (or cottonseed oil), 10 mg in 10% EtOH (95%) in olive oil (or cottonseed oil), read-out: 1 ml Sparingly soluble (0.01 g/ml; 10 mg/ml)): > 10 mg/mL
- solubility ([2]; 10% EtOH (95%) in olive oil (or cottonseed oil), 0.1 ml Freely soluble (0.1 g/ml), 10 mg in 10% EtOH (95%) in olive oil (or cottonseed oil)): < 100 mg/mL
- solubility ([2]; 10% EtOH (95%) in olive oil (or cottonseed oil), 10 ml Slightly soluble (0.001 g/ml; 1 mg/ml), 10 mg in 10% EtOH (95%) in olive oil (or cottonseed oil)): > 1 mg/mL
- solubility ([2]; Acetate saline 100 mM, Mannitol 250 mM, pH 4.3, 10 mg in Acetate saline 100 mM, Mannitol 250 mM (pH 4.3), read-out: 0.01 ml Very soluble (1 g/ml)): < 1000 mg/mL
- solubility ([2]; Acetate saline 100 mM, Mannitol 250 mM, pH 4.3, 10 mg in Acetate saline 100 mM, Mannitol 250 mM (pH 4.3), read-out: 0.5 ml Soluble (0.02 g/ml; 20 mg/ml)): < 20 mg/mL
- solubility ([2]; Acetate saline 100 mM, Mannitol 250 mM, pH 4.3, 10 mg in Acetate saline 100 mM, Mannitol 250 mM (pH 4.3), read-out: 1 ml Sparingly soluble (0.01 g/ml; 10 mg/ml)): < 10 mg/mL
- solubility ([2]; Acetate saline 100 mM, Mannitol 250 mM, pH 4.3, 0.1 ml Freely soluble (0.1 g/ml), 10 mg in Acetate saline 100 mM, Mannitol 250 mM (pH 4.3)): < 100 mg/mL
- solubility ([2]; Acetate saline 100 mM, Mannitol 250 mM, pH 4.3, 10 ml Slightly soluble (0.001 g/ml; 1 mg/ml), 10 mg in Acetate saline 100 mM, Mannitol 250 mM (pH 4.3)): > 1 mg/mL
- solubility ([2]; Acetate saline 100 mM, Mannitol 250 mM, pH 4.3, Acetate saline 100 mM, Mannitol 250 mM (pH 4.3), read-out: Results USP Definition: solubility): 2 to 3 mg/mL
- solubility ([2]; Acetic acid 1% (glacial), 10 mg in Acetic acid 1% (glacial), read-out: 0.01 ml Very soluble (1 g/ml)): < 1000 mg/mL
- solubility ([2]; Acetic acid 1% (glacial), 10 mg in Acetic acid 1% (glacial), read-out: 0.5 ml Soluble (0.02 g/ml; 20 mg/ml)): > 20 mg/mL
- solubility ([2]; Acetic acid 1% (glacial), 10 mg in Acetic acid 1% (glacial), read-out: 1 ml Sparingly soluble (0.01 g/ml; 10 mg/ml)): > 10 mg/mL
- solubility ([2]; Acetic acid 1% (glacial), 0.1 ml Freely soluble (0.1 g/ml), 10 mg in Acetic acid 1% (glacial)): > 100 mg/mL
- solubility ([2]; Acetic acid 1% (glacial), 10 ml Slightly soluble (0.001 g/ml; 1 mg/ml), 10 mg in Acetic acid 1% (glacial)): > 1 mg/mL
- solubility ([2]; Acetone (USP), 10 mg in Acetone (USP), read-out: 0.01 ml Very soluble (1 g/ml)): < 1000 mg/mL
- solubility ([2]; Acetone (USP), 10 mg in Acetone (USP), read-out: 0.5 ml Soluble (0.02 g/ml; 20 mg/ml)): > 20 mg/mL
- solubility ([2]; Acetone (USP), 10 mg in Acetone (USP), read-out: 1 ml Sparingly soluble (0.01 g/ml; 10 mg/ml)): > 10 mg/mL
Structure (SMILES): C[C@@H](O)[C@@H]1NC(=O)[C@H](CCCCN)NC(=O)[C@@H](Cc2c[nH]c3ccccc23)NC(=O)[C@H](Cc2c[nH]c3ccccc23)NC(=O)[C@H](Cc2ccccc2)NC(=O)CCCNC(=O)CCCN(CC(N)=O)C(=O)[C@H](Cc2ccccc2)NC1=O [Veldoreotide Acetate, Cyclo(-γ-aminobutyryl-L-phenylalanyl-L-tryptophanyl-D-tryptophanyl-L-lysyl-L-threonyl-L-phenylalanyl-N-carbamoylmethyl-γ-aminobutyryl), acetate salt]
- growth inhibition [1]: significant growth inhibition
